Several values for one entry are separate records, joined by “and”; a condition that tells them apart may be missing. Equal entries are not always repeated.
Tests used:
[1] = molecular target: Glycogen synthase kinase-3 beta (Homo sapiens, UniProt P49841); test: TR-FRET Assay
Procedure, shortened: (§1)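 TR-FRET readout: streptavidin-d2 (40 nM in added detection mix) plus Tb-anti-pSer641 Ab (2 nM in mix). Steps were 30 min compound preincubation, kinase reaction, then EDTA stop.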

[2] = molecular target: Glycogen synthase kinase-3 alpha (Homo sapiens, UniProt P49840); test: TR-FRET Assay
Procedure, shortened: as §1

Sequence of Glycogen synthase kinase-3 beta (P49841 whole entry): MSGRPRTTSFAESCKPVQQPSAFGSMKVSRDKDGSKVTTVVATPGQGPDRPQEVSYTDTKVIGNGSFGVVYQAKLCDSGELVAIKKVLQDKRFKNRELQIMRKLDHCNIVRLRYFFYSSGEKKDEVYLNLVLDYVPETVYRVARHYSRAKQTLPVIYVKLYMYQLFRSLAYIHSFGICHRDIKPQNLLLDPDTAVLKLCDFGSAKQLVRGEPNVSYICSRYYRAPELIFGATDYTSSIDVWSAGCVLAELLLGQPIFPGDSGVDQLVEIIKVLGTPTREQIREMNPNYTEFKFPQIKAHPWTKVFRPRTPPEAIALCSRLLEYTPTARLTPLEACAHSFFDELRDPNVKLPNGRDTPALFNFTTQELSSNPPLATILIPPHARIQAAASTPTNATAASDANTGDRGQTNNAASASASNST
Sequence of Glycogen synthase kinase-3 alpha (P49840 whole entry): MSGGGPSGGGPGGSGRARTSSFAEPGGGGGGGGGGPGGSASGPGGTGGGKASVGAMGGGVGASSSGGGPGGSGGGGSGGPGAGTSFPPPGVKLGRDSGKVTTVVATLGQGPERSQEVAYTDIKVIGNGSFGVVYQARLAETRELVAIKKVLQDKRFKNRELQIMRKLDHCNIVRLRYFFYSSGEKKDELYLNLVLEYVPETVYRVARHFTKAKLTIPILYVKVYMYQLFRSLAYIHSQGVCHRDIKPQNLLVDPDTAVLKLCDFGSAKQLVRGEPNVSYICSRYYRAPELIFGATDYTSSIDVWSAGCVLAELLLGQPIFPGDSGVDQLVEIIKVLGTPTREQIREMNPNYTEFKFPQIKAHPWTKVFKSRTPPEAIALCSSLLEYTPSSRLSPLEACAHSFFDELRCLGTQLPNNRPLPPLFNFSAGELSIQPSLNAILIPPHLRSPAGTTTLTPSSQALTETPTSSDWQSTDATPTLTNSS

Row | SMILES | IC50 [1] | IC50 [2]
1 | CC1(C)CC(=O)C2=C(NC3=C(CN=N3)C23CCN(S(=O)(=O)c2ccccc2C(F)F)CC3)[C@@H]1F [US20250313563, Compound 951846] | 100 to 1000 nM | < 100 nM
2 | CC1(C)CC(=O)C2=C(C1)NC1=C(CN=N1)C21CCN(S(=O)(=O)c2cnn3ccccc23)CC1 [US20250313563, Compound 947615] | < 100 nM | < 100 nM
3 | CC[C@@]1(c2cccc(-c3ccncc3C(F)(F)F)c2)C2=C(N=NC2)NC2=C1C(=O)C(C)(C)C2 [US20250313563, Compound 952757] | > 5000 nM | 1000 to 5000 nM
4 | CCC1(c2cccc(N(C)c3ccc(OC)nc3)c2)C2=CN=NC2NC2=C1C(=O)CC(C)(C)C2 (configuration not stated) [US20250313563, Compound 913252] | 100 to 1000 nM | 100 to 1000 nM
5 | CC1(C)CC(=O)C2=C(C1)NC1=C(CN=N1)C21CCN(S(=O)(=O)c2cccc3ccncc23)CC1 [US20250313563, Compound 947901] | < 100 nM | < 100 nM
6 | CC[C@@]1(c2cccc(-c3cnc(C)n3C)c2)C2=CN=NC2NC2=C1C(=O)CC(C)(C)C2 (some centres not stated) [US20250313563, Compound 945612] | > 5000 nM | 1000 to 5000 nM
7 | CC[C@]1(c2cccc(C(F)(F)F)c2)C2=CN=NC2NC2=C1C(=O)C[C@]1(CCNC1=O)C2 (some centres not stated) [US20250313563, Compound 950333] | 100 to 1000 nM | < 100 nM
8 | CC1(C)CC(=O)C2=C(C1)NC1=C(CN=N1)C21CCN(S(=O)(=O)c2cccc3c2CCCC3)CC1 [US20250313563, Compound 947470] | < 100 nM | < 100 nM
9 | CCC1(c2cccc(S(C)(=O)=O)c2)C2=CN=NC2NC2=C1C(=O)CC(C)(C)C2 (configuration not stated) [US20250313563, Compound 819561] | < 100 nM | < 100 nM
10 | CC[C@@]1(c2cccc(C(F)(F)F)c2)C2=CN=NC2NC2=C1C(=O)C[C@@]1(CCN(C)C1=O)C2 (some centres not stated) [US20250313563, Compound 950326] | 100 to 1000 nM | < 100 nM
11 | CC[C@@]1(c2cccc(C(F)(F)F)c2)C2=CN=NC2NC2=C1C(=O)NC1(CCC1)C2 (some centres not stated) [US20250313563, Compound 914344] | > 5000 nM | 100 to 1000 nM
12 | CC1(C)CC(=O)C2=C(C1)NC1=C(CN=N1)C21CCN(S(=O)(=O)c2ccc(C(F)(F)F)cn2)CC1 [US20250313563, Compound 947902] | < 100 nM | < 100 nM

The remaining lines, values ahead:

Row | IC50 [1] | IC50 [2] | SMILES
13 | > 5000 nM | > 5000 nM | CC[C@@]1(c2cccc(C(F)(F)F)c2)C2=CN=NC2NC2=C1C(=O)N(Cc1ccccc1)CC2 (some centres not stated) [US20250313563, Compound 912006]
14 | 100 to 1000 nM | < 100 nM | O=C1CC2(CCOC2)CC2=C1C1(CCOCC1)C1=C(N=NC1)N2 (configuration not stated) [US20250313563, Compound 889573]
15 | < 100 nM | < 100 nM | CC[C@]1(c2cccc(S(=O)(=O)C3CC3)c2)C2=CN=NC2NC2=C1C(=O)NC(C)(C)C2 (some centres not stated) [US20250313563, Compound 947803]
16 | 1000 to 5000 nM | 100 to 1000 nM | CC[C@H]1C[C@@]2(CCO1)C1=C(N=NC1)NC1=C2C(=O)CC(C)(C)C1 [US20250313563, Compound 924311]
17 | < 100 nM | < 100 nM | CC1(C)CC(=O)C2=C(NC3=C(CN=N3)C23CCN(S(=O)(=O)C2CC2)CC3)C1F (configuration not stated) [US20250313563, Compound 950814]
18 | 100 to 1000 nM | < 100 nM | CCC1(c2cccc(-c3cc(C)ncc3C)c2)C2=CN=NC2NC2=C1C(=O)CC(C)(C)C2 (configuration not stated) [US20250313563, Compound 913346]
19 | < 100 nM and 100 to 1000 nM | < 100 nM and 100 to 1000 nM | CC[C@@]1(c2ccccc2)C2=C(CC(C)(C)CC2=O)NC2N=NC(Br)=C21 (some centres not stated) [US20250313563, Compound 792340]
20 | < 100 nM | < 100 nM | CC1(C)CC(=O)C2=C(C1)NC1=C(CN=N1)C21COC2(CN(C(=O)C3CCCC3)C2)C1 (configuration not stated) [US20250313563, Compound 917232]
21 | < 100 nM | < 100 nM | CC[C@@]1(c2cccc(-c3cn(C)nc3C3CC3)c2)C2=CN=NC2NC2=C1C(=O)NC(C)(C)C2 (some centres not stated) [US20250313563, Compound 951706]

From BindingDB's records for patent US20250313563 (The Broad Institute, 2025)
